Measurements published in paper PMC3968014, “Design and Synthesis of a Library of Lead-Like 2,4-Bisheterocyclic Substituted Thiophenes as Selective Dyrk/Clk Inhibitors” (PLoS ONE, 2014).
Where two headings read alike, the source gives them in different places.

How the values were obtained:
Dyrk1A = target: T1, Dyrk1A (Homo sapiens, UniProt Q13627); test: Dyrk1A kinase assay (32P-ATP, Woodtide); type: biochemical; settings: read-out: percentage of inhibition Dyrk1A
T1 construct: encoding the catalytic domain of human Dyrk1A; thrombin cleavage site (N); made in house; host or cells: Escherichia coli BL21(DE3) with pRARE

Clk1 = Clk1 (Homo sapiens, UniProt P49759); test: Clk1 kinase assay (RS repeat peptide); type: biochemical; settings: read-out: % inhibition Clk1
Clk1, sequence (P49759 whole entry): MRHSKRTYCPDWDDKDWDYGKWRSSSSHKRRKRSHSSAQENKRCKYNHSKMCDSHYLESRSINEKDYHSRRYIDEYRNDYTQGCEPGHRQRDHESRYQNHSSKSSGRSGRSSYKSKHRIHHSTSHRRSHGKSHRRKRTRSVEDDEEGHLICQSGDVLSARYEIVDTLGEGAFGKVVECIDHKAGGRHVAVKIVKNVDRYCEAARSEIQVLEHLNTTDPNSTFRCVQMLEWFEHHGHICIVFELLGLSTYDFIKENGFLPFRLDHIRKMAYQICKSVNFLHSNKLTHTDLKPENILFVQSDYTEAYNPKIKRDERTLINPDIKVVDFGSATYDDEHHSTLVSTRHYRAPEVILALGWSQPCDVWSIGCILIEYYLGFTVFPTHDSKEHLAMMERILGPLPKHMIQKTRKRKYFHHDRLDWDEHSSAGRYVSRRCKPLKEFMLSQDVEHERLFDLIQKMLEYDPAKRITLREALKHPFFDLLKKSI

[1] = test system: V79 hamster lung fibroblast cells; test: ViaLight Toxicity Assay; type: cell-based; settings: 48 hours
Description: V79 hamster lung fibroblast cells were plated at a density of 45,000 cells per well in a white 96 well plate and allowed to adhere and grow for 24 hours. The compounds were then applied as dilutions in cell culture medium (DMEM with 10% FCS and penicillin/streptomycin mix) at a final concentration of 5, 10, and 20 µM, respectively. The plate was further incubated for 48 hours at 37°C in a humidified atmosphere containing 5% CO2. The ATP level was detected with a LONZA ViaLight™ Plus Kit according to protocol 1 of the vendor's instructions. Luminescence was measured in a POLARstar plate reader (BMG Labtech, Offenburg, Germany). The background luminescence was obtained from equally treated, cell-free wells containing serum, and subtracted from all values. Inhibition values obtained for different compound concentrations were compared using the two-sided Student's t-test; levels of significance thus obtained are indicated by asterisks.

Dyrk2 = target: T2, Dyrk2 (Homo sapiens, UniProt Q92630); test: Dyrk2 kinase assay (32P-ATP, Woodtide); type: biochemical; settings: for inhibition at 5 µM: read-out: percentage of inhibition Dyrk2
T2 construct: made in house; host or cells: Escherichia coli BL21(DE3) with pRARE; plasmid pGEX-2TK-Dyrk2 (gift from W. Becker, Aachen)
T2 sequence (Q92630 1-601): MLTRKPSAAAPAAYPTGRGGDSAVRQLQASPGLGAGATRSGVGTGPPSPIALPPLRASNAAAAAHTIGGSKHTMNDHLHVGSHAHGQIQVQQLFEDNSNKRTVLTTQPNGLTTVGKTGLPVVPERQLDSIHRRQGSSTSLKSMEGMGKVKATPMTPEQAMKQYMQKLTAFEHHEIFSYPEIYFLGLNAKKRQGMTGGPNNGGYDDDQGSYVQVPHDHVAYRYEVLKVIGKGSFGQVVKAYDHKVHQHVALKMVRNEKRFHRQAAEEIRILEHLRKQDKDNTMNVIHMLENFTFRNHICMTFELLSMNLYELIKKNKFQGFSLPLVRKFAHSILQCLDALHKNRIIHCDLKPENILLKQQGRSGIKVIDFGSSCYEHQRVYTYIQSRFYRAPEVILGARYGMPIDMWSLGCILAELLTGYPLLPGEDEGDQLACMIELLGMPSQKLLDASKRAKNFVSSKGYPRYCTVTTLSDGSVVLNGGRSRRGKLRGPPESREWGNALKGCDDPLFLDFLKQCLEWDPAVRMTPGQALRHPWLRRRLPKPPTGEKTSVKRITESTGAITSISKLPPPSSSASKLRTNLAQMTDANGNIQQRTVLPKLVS

Dyrk1B = target: T3, Dyrk1B (Homo sapiens, UniProt Q9Y463); test: Dyrk1B kinase assay (32P-ATP, Woodtide); type: biochemical; settings: at 5 µM; read-out: percentage of inhibition Dyrk1B
T3 construct: purchased Life Technologies PV4649 (LOT # 877059G)
T3 sequence (Q9Y463 whole entry): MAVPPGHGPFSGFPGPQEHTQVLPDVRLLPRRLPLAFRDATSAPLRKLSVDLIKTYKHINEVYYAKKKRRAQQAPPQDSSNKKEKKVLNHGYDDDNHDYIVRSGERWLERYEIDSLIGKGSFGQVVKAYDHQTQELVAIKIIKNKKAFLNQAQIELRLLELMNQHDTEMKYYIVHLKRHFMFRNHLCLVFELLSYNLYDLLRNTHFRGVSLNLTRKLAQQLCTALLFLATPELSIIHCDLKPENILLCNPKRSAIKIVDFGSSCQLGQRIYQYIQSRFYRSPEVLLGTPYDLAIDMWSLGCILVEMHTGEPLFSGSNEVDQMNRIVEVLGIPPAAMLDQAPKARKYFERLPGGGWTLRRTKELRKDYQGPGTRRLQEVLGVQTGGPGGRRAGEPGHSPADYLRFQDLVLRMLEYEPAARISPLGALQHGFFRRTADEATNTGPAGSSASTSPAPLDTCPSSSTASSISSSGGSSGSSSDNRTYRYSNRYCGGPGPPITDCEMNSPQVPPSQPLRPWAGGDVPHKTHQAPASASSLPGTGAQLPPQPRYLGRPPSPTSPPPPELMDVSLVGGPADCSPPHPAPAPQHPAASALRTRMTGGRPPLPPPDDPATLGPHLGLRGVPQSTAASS

[2] = Metabolic Stability Assay; settings: male, Sprague-Dawley, rat, microsomes
CK2α = target: T4, CK2α (Homo sapiens, UniProt P68400); test: CK2α kinase assay (counter screen); type: biochemical; settings: read-out: percentage of inhibition CK2α
T4 construct: purchased Life Technologies (Invitrogen SelectScreen); Dyrk1A, Dyrk2 and CK2α in-house or gifts
T4 sequence (P68400 whole entry): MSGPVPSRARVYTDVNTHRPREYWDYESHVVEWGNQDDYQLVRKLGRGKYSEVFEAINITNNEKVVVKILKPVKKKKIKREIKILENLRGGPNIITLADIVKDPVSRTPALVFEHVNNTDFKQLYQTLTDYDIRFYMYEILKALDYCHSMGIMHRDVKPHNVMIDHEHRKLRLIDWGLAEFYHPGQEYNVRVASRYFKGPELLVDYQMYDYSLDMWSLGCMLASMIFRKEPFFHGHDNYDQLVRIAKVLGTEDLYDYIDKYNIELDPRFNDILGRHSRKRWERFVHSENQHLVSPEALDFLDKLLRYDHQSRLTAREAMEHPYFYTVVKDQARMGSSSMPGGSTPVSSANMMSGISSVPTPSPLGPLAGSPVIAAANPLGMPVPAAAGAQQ
Description: Dyrk1A, Dyrk1B, Dyrk2, CK2α and Clk1 kinase reactions were performed in a reaction buffer containing 50 mM Tris/HCl, pH 7.4, 0.1 mM EGTA, 0.5 mM DTT, 10 mM MgCl2, 100 µM ATP and 0.33 µM [γ-^32ATP] as well as the appropriate substrate peptides, which were 100 µM Woodtide for the Dyrk isoforms ([…]-NH2), 60 µM CK2 substrate peptide ([…]-NH2, from Millipore) for CK2α or RS repeat peptide ([…]) for Clk1. The CK2α protein was a kind gift of M. Montenarh (Homburg). The kinase reactions were performed at 30°C for 15 min and terminated by spotting 5 µL of the reaction mixture onto a P81 phosphocellulose membrane (Whatman). The membrane was washed four times with 0.3% phosphoric acid and one time with acetone and dried. The dry membrane was exposed in a cassette to a Phosphor Screen Imaging Plate (FujiFilm) and the signals detected by scanning of the imaging plate in a Fuji FLA-3000 PhosphoImager. The spots were quantified using AIDA software (Raytest, Version 3.52) to determine the activities of the kinases in the assay reactions. […] IC50 values were calculated by fitting the data with Origin Pro 8.6 (OriginLabs). The calculated IC50 values are representative of at least two independent determinations.

U2OS osteosarcoma cells = test: Caspase-3 Assay (Caspase-Glo 3/7); type: cell-based; settings: starved U2OS cells, 48 hours, vs DMSO control
Description: U2OS osteosarcoma cells were seeded in a 96 well flat bottom plate (15*10^3 cells/well). […] The induction of caspase-3/7 activity was measured using the Promega Caspase-Glo 3/7 assay system (Promega, LOT 0000054568). The resulting luciferase reaction signals that are proportional to the caspase induction were measured in a POLARstar plate reader (BMG Labtech, Offenburg, Germany). […] Values obtained for different compound concentrations were compared using the two-sided Student's t test; levels of significance thus obtained are indicated by asterisks.

[3] = Determination of logP, pka and logS (Sirius T3); type: physicochemical; settings: Experimental
Description: The physicochemical parameters were determined on a Sirius T3 machine (Sirius Analytical machines, East Sussex, UK) by automated titration according to the manufacturer's instructions.

| SMILES | inhibition at 5 µM (Dyrk1A) [%] | inhibition at 5 µM (Clk1) [%] | influence on cell viability (cellular ATP levels) ([1]; V79 cells, 5 µM) | IC50 (Dyrk2; IC50 Dyrk2, 100 µM ATP) [µM] | inhibition at 5 µM (Dyrk2) [%] | inhibition at 5 µM (Dyrk1B) [%] | CLhep predicted at 0.5 µM [2] [mL/min/kg] | half-life at 0.5 µM [2] [min] | inhibition at 5 µM (Dyrk1A; at 5 µM) [%] | influence on cell growth (cellular ATP levels) ([1]; V79 cells, 5, 10 and 20 µM) | inhibition at 5 µM (CK2α) [%] | inhibition at 5 µM (Dyrk2; at 5 µM) [%] | caspase-3/7 activity (U2OS osteosarcoma cells) | logP [3] | solubility ([3]; read-out: Solubility) [µg/mL] | solubility ([3]; read-out: logS (converted)) [µM] | pKa ([3]; read-out: pka1) | pKa ([3]; read-out: pka2) |
| --- | --- | --- | --- | --- | --- | --- | --- | --- | --- | --- | --- | --- | --- | --- | --- | --- | --- | --- |
| COc1ccc2c(c1)[nH]c1c(C)nccc12 [Harmine, harmine, reference compound] | 98 | 97 | slightly toxic | 3 | 68 | 98 | 53 | 18 | – | – | – | – | – | – | – | – | – | – |
| c1cncc(-c2cc(-c3ccncc3)cs2)c1 [Compound 11] | – | – | – | – | – | 10 | – | – | 10 | no influence | 0 | 20 | only a slight increase | – | – | – | – | – |
| c1cncc(-c2csc(-c3cccnc3)c2)c1 [Compound 4] | – | – | – | – | – | – | – | – | – | – | 18.5 | – | – | 2.47 | 500 | 2140 | 3.48 | 4.8 |
